Assay results: the NIST ThermoML archive (doi:10.1016/j.jct.2012.10.023)
Numbers after ± are expanded uncertainties.

Test: xn = mol fraction of the nth substance listed
Settings: 101 kPa, Liquid; for speed of sound: Sing-around technique in a fixed-path interferometer; for mass density: Vibrating tube method

CCCCCCCCCO [nonan-1-ol] + Cc1ccc(C)cc1
Settings | mass density, 298.15 K [kg/m3] | mass density, 308.15 K [kg/m3] | speed of sound, 298.15 K [m/s] | speed of sound, 308.15 K [m/s]
x2 = 0 | 824.271 ± 0.17 | 817.362 ± 0.17 | 1363.1 ± 1 | 1330.4 ± 1
x2 = 0.0611 | 825.819 ± 0.18 | 818.805 ± 0.18 | 1360.1 ± 1 | 1326.3 ± 1
x2 = 0.1108 | 827.09 ± 0.18 | 819.99 ± 0.18 | 1357.1 ± 1 | 1322.6 ± 1
x2 = 0.1652 | 828.491 ± 0.19 | 821.297 ± 0.19 | 1353.4 ± 1.1 | 1318.2 ± 1
x2 = 0.226 | 830.074 ± 0.19 | 822.774 ± 0.19 | 1349 ± 1.1 | 1313.3 ± 1.1
x2 = 0.2932 | 831.854 ± 0.2 | 824.435 ± 0.2 | 1343.9 ± 1.1 | 1307.5 ± 1.1
x2 = 0.3651 | 833.819 ± 0.21 | 826.271 ± 0.21 | 1338.4 ± 1.1 | 1301.2 ± 1.1
x2 = 0.4248 | 835.506 ± 0.21 | 827.851 ± 0.21 | 1333.5 ± 1.1 | 1296.1 ± 1.1
x2 = 0.5023 | 837.784 ± 0.22 | 829.988 ± 0.23 | 1327.5 ± 1.1 | 1289.7 ± 1.1
x2 = 0.558 | 839.499 ± 0.23 | 831.601 ± 0.23 | 1323.3 ± 1.2 | 1285.2 ± 1.1
x2 = 0.6359 | 842.032 ± 0.24 | 833.99 ± 0.24 | 1318.1 ± 1.2 | 1279.6 ± 1.2
x2 = 0.7123 | 844.678 ± 0.25 | 836.494 ± 0.25 | 1313.8 ± 1.2 | 1274.8 ± 1.2
x2 = 0.7744 | 846.969 ± 0.26 | 838.668 ± 0.26 | 1311 ± 1.2 | 1271.7 ± 1.2
x2 = 0.8514 | 850.015 ± 0.27 | 841.569 ± 0.28 | 1308.9 ± 1.3 | 1269 ± 1.2
x2 = 0.9286 | 853.306 ± 0.29 | 844.715 ± 0.29 | 1308 ± 1.3 | 1268 ± 1.3

CCCCCCCCCO [nonan-1-ol] + Cc1cccc(C)c1
Settings | mass density, 298.15 K [kg/m3] | mass density, 308.15 K [kg/m3] | speed of sound, 298.15 K [m/s] | speed of sound, 308.15 K [m/s]
x2 = 0 | 824.271 ± 0.17 | 817.362 ± 0.17 | 1363.1 ± 1 | 1330.4 ± 1
x2 = 0.066 | 826.04 ± 0.17 | 819.011 ± 0.17 | 1360.2 ± 1 | 1326.5 ± 0.99
x2 = 0.127 | 827.699 ± 0.17 | 820.562 ± 0.17 | 1357 ± 1 | 1322.5 ± 0.98
x2 = 0.1739 | 828.993 ± 0.16 | 821.778 ± 0.17 | 1354.2 ± 0.99 | 1319.2 ± 0.98
x2 = 0.2461 | 831.027 ± 0.16 | 823.695 ± 0.16 | 1349.4 ± 0.98 | 1313.9 ± 0.97
x2 = 0.2913 | 832.335 ± 0.16 | 824.932 ± 0.16 | 1346.4 ± 0.98 | 1310.4 ± 0.96
x2 = 0.3635 | 834.482 ± 0.16 | 826.964 ± 0.16 | 1341.4 ± 0.97 | 1304.8 ± 0.95
x2 = 0.4422 | 836.925 ± 0.15 | 829.276 ± 0.16 | 1335.9 ± 0.96 | 1298.9 ± 0.94
x2 = 0.4872 | 838.383 ± 0.15 | 830.658 ± 0.15 | 1332.9 ± 0.96 | 1295.5 ± 0.94
x2 = 0.5648 | 841.002 ± 0.15 | 833.142 ± 0.15 | 1328.2 ± 0.95 | 1290.1 ± 0.93
x2 = 0.6251 | 843.155 ± 0.14 | 835.189 ± 0.15 | 1324.7 ± 0.94 | 1286.3 ± 0.92
x2 = 0.6873 | 845.49 ± 0.14 | 837.419 ± 0.15 | 1321.9 ± 0.93 | 1283 ± 0.92
x2 = 0.7713 | 848.867 ± 0.14 | 840.659 ± 0.14 | 1319 ± 0.93 | 1279.5 ± 0.91
x2 = 0.8508 | 852.346 ± 0.14 | 843.997 ± 0.14 | 1317.8 ± 0.92 | 1277.7 ± 0.9
x2 = 0.9284 | 856.073 ± 0.13 | 847.58 ± 0.14 | 1318 ± 0.91 | 1277.6 ± 0.9

CCCCCCCCCO [nonan-1-ol] + Cc1ccccc1C
Settings | mass density, 298.15 K [kg/m3] | mass density, 308.15 K [kg/m3] | speed of sound, 298.15 K [m/s] | speed of sound, 308.15 K [m/s]
x2 = 0 | 824.271 ± 0.17 | 817.362 ± 0.17 | 1363.1 ± 1 | 1330.4 ± 1
x2 = 0.0653 | 826.644 ± 0.17 | 819.637 ± 0.17 | 1361.7 ± 1 | 1328.2 ± 0.99
x2 = 0.136 | 829.283 ± 0.17 | 822.169 ± 0.17 | 1359.7 ± 1 | 1325.5 ± 0.98
x2 = 0.1773 | 830.871 ± 0.16 | 823.694 ± 0.17 | 1358.3 ± 0.99 | 1323.7 ± 0.98
x2 = 0.2281 | 832.869 ± 0.16 | 825.612 ± 0.16 | 1356.5 ± 0.99 | 1321.4 ± 0.97
x2 = 0.2834 | 835.111 ± 0.16 | 827.766 ± 0.16 | 1354.3 ± 0.98 | 1318.8 ± 0.97
x2 = 0.3463 | 837.756 ± 0.16 | 830.309 ± 0.16 | 1351.8 ± 0.98 | 1315.8 ± 0.96
x2 = 0.4203 | 841.015 ± 0.15 | 833.448 ± 0.15 | 1348.8 ± 0.97 | 1312.5 ± 0.95
x2 = 0.4761 | 843.593 ± 0.15 | 835.935 ± 0.15 | 1346.7 ± 0.96 | 1310 ± 0.95
x2 = 0.5478 | 847.079 ± 0.15 | 839.304 ± 0.15 | 1344.3 ± 0.96 | 1307.3 ± 0.94
x2 = 0.6327 | 851.482 ± 0.14 | 843.569 ± 0.14 | 1342.2 ± 0.95 | 1304.7 ± 0.93
x2 = 0.7121 | 855.922 ± 0.14 | 847.884 ± 0.14 | 1341.1 ± 0.94 | 1303 ± 0.92
x2 = 0.7974 | 861.062 ± 0.13 | 852.892 ± 0.14 | 1341 ± 0.93 | 1302.3 ± 0.92
x2 = 0.8695 | 865.751 ± 0.13 | 857.475 ± 0.13 | 1342.1 ± 0.93 | 1302.8 ± 0.91
x2 = 0.9287 | 869.902 ± 0.12 | 861.543 ± 0.13 | 1344 ± 0.93 | 1304.3 ± 0.91
